This note sets out measurements from ChEMBL document CHEMBL1140446, “Designed multiple ligands. An emerging drug discovery paradigm” (J Med Chem, 2005).

Test [1] concerns the target T1, Peroxisome proliferator-activated receptor alpha (Homo sapiens, UniProt Q07869).
T1 sequence (Q07869 whole entry): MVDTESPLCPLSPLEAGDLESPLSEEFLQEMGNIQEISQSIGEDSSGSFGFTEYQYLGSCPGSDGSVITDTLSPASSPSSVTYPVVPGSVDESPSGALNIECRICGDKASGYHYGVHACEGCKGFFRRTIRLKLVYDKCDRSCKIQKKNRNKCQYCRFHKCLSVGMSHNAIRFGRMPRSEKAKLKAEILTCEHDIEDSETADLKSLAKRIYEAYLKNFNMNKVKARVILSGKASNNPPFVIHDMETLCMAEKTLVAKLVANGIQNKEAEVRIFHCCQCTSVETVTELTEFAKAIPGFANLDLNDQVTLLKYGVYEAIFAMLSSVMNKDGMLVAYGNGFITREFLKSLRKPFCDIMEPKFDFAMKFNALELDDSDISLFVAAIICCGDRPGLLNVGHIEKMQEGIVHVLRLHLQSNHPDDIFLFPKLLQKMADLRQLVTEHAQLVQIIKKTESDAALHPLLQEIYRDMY
Description: Binding affinity towards peroxisome proliferator activated receptor alpha

Test [2] addresses T2, Peroxisome proliferator-activated receptor delta (Homo sapiens, UniProt Q03181).
T2 sequence (Q03181 whole entry): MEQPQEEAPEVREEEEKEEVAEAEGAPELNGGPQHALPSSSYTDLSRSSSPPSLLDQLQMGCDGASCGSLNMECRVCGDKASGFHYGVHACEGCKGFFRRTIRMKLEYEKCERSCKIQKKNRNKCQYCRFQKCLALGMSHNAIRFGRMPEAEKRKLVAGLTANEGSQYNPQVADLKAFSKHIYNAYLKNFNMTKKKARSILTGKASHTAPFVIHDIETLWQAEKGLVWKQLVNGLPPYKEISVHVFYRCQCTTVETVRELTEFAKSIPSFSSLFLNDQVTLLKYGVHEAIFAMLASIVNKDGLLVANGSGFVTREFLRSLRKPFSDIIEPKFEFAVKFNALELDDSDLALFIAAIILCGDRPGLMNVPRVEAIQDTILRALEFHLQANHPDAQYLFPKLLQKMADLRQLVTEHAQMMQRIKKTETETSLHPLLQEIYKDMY
Description: Binding affinity towards peroxisome proliferator activated receptor delta

The target of test [3] is T3, Peroxisome proliferator-activated receptor gamma (Homo sapiens, UniProt P37231).
T3 sequence (P37231 whole entry): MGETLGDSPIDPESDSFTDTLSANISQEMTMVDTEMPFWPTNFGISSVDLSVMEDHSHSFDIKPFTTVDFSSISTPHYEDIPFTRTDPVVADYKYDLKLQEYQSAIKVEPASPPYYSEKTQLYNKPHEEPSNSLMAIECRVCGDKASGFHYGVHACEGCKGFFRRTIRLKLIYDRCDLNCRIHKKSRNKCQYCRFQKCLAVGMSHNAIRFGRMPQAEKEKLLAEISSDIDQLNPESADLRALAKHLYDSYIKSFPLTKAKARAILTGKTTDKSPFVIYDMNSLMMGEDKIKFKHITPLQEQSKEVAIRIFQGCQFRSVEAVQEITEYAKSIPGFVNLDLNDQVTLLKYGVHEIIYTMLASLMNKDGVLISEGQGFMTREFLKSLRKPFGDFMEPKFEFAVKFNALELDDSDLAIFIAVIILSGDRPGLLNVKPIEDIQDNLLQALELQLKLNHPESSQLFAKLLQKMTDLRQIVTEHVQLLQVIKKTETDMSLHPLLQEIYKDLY
Description: Binding affinity towards peroxisome proliferator activated receptor gamma

Test [4] addresses T4, Polyunsaturated fatty acid 5-lipoxygenase (Homo sapiens, UniProt P09917).
T4 sequence (P09917 whole entry): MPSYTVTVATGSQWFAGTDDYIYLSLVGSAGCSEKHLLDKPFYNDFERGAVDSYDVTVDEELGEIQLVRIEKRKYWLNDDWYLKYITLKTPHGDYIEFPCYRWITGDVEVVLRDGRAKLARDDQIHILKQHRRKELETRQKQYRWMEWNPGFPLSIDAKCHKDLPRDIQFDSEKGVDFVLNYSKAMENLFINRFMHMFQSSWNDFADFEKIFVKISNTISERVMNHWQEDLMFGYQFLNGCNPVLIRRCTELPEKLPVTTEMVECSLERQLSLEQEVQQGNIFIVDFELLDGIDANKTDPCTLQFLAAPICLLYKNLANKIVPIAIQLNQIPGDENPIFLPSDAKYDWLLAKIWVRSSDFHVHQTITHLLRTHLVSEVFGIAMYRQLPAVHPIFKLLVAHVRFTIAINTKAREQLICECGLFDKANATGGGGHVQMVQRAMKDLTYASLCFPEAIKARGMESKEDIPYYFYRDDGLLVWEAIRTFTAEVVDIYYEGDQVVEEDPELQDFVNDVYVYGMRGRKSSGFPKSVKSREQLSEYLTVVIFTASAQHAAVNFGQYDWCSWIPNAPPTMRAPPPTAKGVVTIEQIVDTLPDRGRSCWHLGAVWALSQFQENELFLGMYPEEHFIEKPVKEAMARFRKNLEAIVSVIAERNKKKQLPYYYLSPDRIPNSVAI

Test [5] has as its target Cyclooxygenase (Homo sapiens, UniProt P35354+P23219).
Description: Inhibitory concentration against prostaglandin G/H synthase
Test [6] deals with T4, Polyunsaturated fatty acid 5-lipoxygenase. Description: Inhibitory concentration against arachidonate 5-lipoxygenase.
The target of test [7] is T5, 5-hydroxytryptamine receptor 1A (Homo sapiens, UniProt P08908).
T5 sequence (P08908 whole entry): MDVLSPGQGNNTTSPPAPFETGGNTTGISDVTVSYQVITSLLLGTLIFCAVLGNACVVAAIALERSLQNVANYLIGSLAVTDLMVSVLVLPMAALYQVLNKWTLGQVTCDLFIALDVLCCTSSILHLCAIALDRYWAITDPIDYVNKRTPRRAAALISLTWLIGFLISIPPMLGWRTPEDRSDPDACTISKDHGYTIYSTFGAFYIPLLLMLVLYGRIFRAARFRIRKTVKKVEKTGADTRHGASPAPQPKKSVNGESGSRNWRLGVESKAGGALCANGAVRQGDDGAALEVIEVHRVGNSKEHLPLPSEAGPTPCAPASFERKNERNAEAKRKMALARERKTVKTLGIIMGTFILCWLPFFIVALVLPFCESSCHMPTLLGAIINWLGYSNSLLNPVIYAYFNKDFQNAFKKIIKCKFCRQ
Description: Inhibition constant against 5-hydroxytryptamine 1A receptor

Test [8] deals with T6, Sodium-dependent serotonin transporter (Homo sapiens, UniProt P31645).
Description: Inhibitory concentration against serotonin transporter
The target of test [9] is T7, Substance-K receptor (Homo sapiens, UniProt P21452).
T7 sequence (P21452 whole entry): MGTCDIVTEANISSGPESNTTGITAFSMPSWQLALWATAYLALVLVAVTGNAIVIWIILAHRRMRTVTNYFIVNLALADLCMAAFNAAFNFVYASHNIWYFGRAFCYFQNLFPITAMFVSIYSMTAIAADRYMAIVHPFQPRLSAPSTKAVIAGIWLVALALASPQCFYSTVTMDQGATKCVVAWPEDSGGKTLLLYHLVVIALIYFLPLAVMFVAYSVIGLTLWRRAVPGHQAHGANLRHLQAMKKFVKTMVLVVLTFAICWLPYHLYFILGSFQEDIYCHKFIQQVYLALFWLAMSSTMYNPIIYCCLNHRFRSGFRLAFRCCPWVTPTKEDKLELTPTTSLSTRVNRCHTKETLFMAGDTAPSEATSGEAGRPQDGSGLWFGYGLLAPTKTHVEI
Description: Inhibitory concentration against tachykinin receptor 2

For test [10], the target named is T6, Sodium-dependent serotonin transporter. Description: Negative logarithm causing 50% receptor occupancy against serotonin transporter.
Test [11] deals with T8, Adrenergic receptor alpha-1 (Homo sapiens, UniProt P35348+P25100+P35368).
T8 sequence (P35348 whole entry): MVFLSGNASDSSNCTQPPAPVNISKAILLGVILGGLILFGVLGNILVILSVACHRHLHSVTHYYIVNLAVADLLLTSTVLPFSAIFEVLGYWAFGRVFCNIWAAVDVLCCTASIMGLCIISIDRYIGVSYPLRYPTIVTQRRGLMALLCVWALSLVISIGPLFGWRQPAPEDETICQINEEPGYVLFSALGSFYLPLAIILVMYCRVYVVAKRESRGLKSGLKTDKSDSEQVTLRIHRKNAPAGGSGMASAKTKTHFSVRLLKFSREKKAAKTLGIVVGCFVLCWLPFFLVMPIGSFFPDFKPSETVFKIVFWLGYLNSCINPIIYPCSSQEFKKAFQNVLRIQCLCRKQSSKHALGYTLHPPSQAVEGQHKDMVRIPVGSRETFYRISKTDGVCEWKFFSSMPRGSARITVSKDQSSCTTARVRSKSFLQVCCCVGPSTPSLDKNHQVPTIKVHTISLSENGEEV
T8 sequence (P25100 whole entry): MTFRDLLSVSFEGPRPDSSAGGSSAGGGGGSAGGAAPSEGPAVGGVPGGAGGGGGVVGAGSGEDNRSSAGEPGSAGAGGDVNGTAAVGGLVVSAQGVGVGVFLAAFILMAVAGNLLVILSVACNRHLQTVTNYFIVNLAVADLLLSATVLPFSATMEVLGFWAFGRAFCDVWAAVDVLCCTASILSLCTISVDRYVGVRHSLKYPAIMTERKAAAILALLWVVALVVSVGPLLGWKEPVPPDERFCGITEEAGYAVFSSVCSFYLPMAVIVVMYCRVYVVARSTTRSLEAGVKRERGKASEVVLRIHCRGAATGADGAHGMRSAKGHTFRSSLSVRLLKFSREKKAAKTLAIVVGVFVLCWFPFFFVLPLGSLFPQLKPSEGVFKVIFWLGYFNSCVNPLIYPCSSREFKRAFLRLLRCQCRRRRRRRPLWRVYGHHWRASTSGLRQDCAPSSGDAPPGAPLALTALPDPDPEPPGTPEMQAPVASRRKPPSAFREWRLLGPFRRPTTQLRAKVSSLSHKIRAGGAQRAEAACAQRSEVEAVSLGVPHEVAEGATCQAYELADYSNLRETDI
T8 sequence (P35368 whole entry): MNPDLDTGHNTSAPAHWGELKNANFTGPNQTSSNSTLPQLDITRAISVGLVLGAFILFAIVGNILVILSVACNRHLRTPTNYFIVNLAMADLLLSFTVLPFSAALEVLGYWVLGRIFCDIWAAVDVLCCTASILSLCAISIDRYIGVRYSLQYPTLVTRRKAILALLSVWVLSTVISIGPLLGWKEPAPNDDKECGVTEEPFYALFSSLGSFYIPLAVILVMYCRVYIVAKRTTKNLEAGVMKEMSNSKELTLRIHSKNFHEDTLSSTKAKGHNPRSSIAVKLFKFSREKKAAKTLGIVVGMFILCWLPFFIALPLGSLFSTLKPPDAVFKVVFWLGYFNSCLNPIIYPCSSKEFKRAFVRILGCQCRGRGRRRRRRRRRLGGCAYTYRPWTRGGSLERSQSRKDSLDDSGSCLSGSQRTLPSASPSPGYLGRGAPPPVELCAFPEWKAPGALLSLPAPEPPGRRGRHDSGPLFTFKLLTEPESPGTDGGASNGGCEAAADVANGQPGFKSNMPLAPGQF
Description: Inhibition constant against alpha adrenergic receptor. In kind it is protein assay.

The target in test [12] is T6, Sodium-dependent serotonin transporter. This is another data set of the same source.
Description: Inhibition constant against serotonin transporter

T6 sequence (P31645 whole entry): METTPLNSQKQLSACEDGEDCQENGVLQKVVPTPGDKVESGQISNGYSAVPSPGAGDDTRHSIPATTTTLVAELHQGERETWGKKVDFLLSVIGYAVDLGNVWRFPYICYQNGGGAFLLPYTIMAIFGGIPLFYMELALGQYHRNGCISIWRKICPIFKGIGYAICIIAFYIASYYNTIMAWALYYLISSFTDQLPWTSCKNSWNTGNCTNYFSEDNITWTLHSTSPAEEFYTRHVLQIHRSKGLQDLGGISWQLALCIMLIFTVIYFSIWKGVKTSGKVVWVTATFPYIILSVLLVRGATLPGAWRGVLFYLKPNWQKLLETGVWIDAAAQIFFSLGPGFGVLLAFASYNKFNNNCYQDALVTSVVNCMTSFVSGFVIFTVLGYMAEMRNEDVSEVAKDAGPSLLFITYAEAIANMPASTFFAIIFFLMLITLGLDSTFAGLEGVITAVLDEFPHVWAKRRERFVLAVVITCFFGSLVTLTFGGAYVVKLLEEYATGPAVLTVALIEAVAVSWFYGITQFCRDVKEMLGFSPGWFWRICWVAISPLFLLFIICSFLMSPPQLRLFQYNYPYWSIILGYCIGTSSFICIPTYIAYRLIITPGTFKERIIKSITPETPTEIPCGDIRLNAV

What is called Kd is the constant that tells how readily two partners part at equilibrium. High values mean weaker binding, low ones tighter binding. For `CCO[C@@H](Cc1ccc(OCC=C(c2ccccc2)c2ccccc2)cc1)C(=O)O`, the equilibrium dissociation constant (Kd) in test [1] is 6400 nM; in test [2], 5700 nM; in test [3] it was 2700 nM.
In general, IC50 refers to the concentration needed to halve the response being measured. The compound `Cc1c(O)c(C)c2sc(NCc3ccc(S(N)(=O)=O)cc3)nc2c1C` yielded an IC50 in [4] of 230 nM.
Consider `CC(C)(C)c1cc(C=C2SC(N)=NC2=O)cc(C(C)(C)C)c1O`, for which the IC50 in test [5] is 390 nM; in test [6], 770 nM.
For `CCOC(Cc1ccc(OCCN(C)C2=Nc3ccccc3Sc3ccccc32)cc1)C(=O)O` (stereo not drawn), the Kd in test [1] was 7500 nM; in test [3] it was 9800 nM.
Usually Ki stands for a measure of affinity in units of concentration, obtained from inhibition or displacement. For the compound `COc1cccc2c1CCCC2CN(C)CCc1cccc(F)c1` (stereo not drawn), the Ki in [7] was found to be 3.2 nM. In test [8], it took 160 nM to reach half-maximal inhibition (IC50).
As to `COc1ccccc1CN[C@H]1C2CCN(CC2)[C@@H]1C(c1ccccc1)c1ccccc1`, the IC50 in test [9] is over 10000 nM.
`CCN(CC)C(=O)[C@@]1(c2ccccc2)CC1CNCC(O)COc1cccc2[nH]ccc12` (stereo partly drawn) returned a Ki in test [7] of 45 nM. Moreover, the IC50 in test [8] was 120 nM.
For the compound `CC(C)(C)c1cc(C(=O)c2cccs2)cc(C(C)(C)C)c1O` [PRIFELONE], the IC50 was 500 nM in test [5] and 20000 nM in test [6].
In the case of `CCO[C@@H](Cc1ccc(OCC=C(c2ccc(-c3ccccc3)cc2)c2ccc(-c3ccccc3)cc2)cc1)C(=O)O`, the Kd was found to be 1100 nM in [1], 500 nM in [2] and 300 nM in test [3].
For `COc1cccc2c1CCCC2CN(C)CCc1ccc2c(c1)OCO2` (stereo not drawn), the affinity in [7], expressed as Ki, was 6.7 nM. In test [8], this compound registered an IC50 of 21 nM.
For the compound `CN(C)C(=O)Oc1ccc2c(c1)C=CCN(C)[C@@H]2CCOc1ccc([N+](=O)[O-])cc1`, inhibition in test [8] was half-maximal at 6 nM (IC50).
In turn, `CC(COc1ccc2c(c1)NC(=O)CO2)NCC(O)COc1cccc2[nH]ccc12` (stereo not drawn) gave an inhibition constant (Ki) in [10] of 50.1 nM.
For the compound `C1=C(c2c[nH]c3ncccc23)CCN(CCOc2cccc3[nH]ccc23)C1`, the Ki stood at 1 nM in [11] and 1.5 nM in test [12].
As to `O=C1COc2ccc(OCCNCCCOc3cccc4[nH]ccc34)cc2N1`, the Ki in [10] is 79.4 nM.
For `CCO[C@@H](Cc1ccc(OCCn2c3ccccc3c3ccccc32)cc1)C(=O)O`, the dissociation constant (Kd) in [1] worked out at 360 nM; in [2] it was 3000 nM; in test [3] it was 170 nM.
In the case of `CN1[C@@H]2CC[C@H]1C[C@@H](OC(=O)c1c[nH]c3ccccc13)C2` [TROPISETRON], the Ki in test [7] worked out at 5.3 nM.
For `COc1ccc(-n2nc(C#CC(C)N(O)C(C)=O)cc2-c2ccc(Cl)cc2)cc1` (stereo not drawn), the IC50 in [5] is 30 nM; in test [6], 110 nM.
Regarding `CN(C)CC(O)COc1cccc2[nH]ccc12` (stereo not drawn), the Ki in [7] is 24 nM; in test [12], over 7000 nM.
